Data on nine compounds can be found in the NIST ThermoML archive (doi:10.1021/je0302304).

Data set [1] is described as follows: refractive index (Na D-line) (dimensionless). To be noted: 101.33 kPa, Liquid, Standard Abbe refractometry.
The conditions of data set [2]: 101.32 kPa, Liquid.
The nature of data set [3]: xn = mol fraction of the nth substance listed. The note with it: 101.32 kPa, Liquid, x2 = 0.
The nature of data set [4]: refractive index (Na D-line) (dimensionless); xn = mol fraction of the nth substance listed. To be noted: 101.32 kPa, Liquid, Standard Abbe refractometry, x2 = 0.

The structures appear in SMILES notation. ± gives the expanded uncertainty stated by the source.

Turning to `COCCOC` [1,2-dimethoxyethane], the refractive index (as a rule, a measure of how strongly the sample bends light) in data set [1] (288.15 K) was determined as 1.3824 ± 0.0005; in data set [1] (298.15 K), 1.3772 ± 0.0005; in data set [1] (308.15 K) it was 1.3722 ± 0.0005; in data set [1] (318.15 K), 1.3672 ± 0.0005. Besides, the mass density (as a rule, mass per unit of volume) in data set [2] (288.15 K) was found to be 872.4 ± 0.3 kg/m3; in data set [2] (298.15 K) it was 861.5 ± 0.3 kg/m3; in data set [2] (308.15 K), 850.4 ± 0.4 kg/m3; in data set [2] (318.15 K), 839.2 ± 0.4 kg/m3.
As to `COCCOCCOCCOCCOC` [2,5,8,11,14-pentaoxapentadecane], the refractive index is 1.4344 ± 0.0003 in data set [1] (288.15 K), 1.4303 ± 0.0003 in data set [1] (298.15 K), 1.4262 ± 0.0003 in data set [1] (308.15 K) and 1.4221 ± 0.0003 in data set [1] (318.15 K). Besides, the mass density was found to be 1016 ± 0.3 kg/m3 in data set [2] (288.15 K), 1006.6 ± 0.3 kg/m3 in data set [2] (298.15 K), 997.4 ± 0.3 kg/m3 in data set [2] (308.15 K) and 988.1 ± 0.3 kg/m3 in data set [2] (318.15 K).
Turning to `COCCOCCOCCOC` [2,5,8,11-tetraoxadodecane], the refractive index in data set [1] (288.15 K) is 1.425 ± 0.0005; in data set [1] (298.15 K), 1.4209 ± 0.0005; in data set [1] (308.15 K), 1.4167 ± 0.0005; in data set [1] (318.15 K), 1.4125 ± 0.0005. The mass density is on record as 989.7 ± 0.4 kg/m3 in data set [2] (288.15 K), 980.1 ± 0.4 kg/m3 in data set [2] (298.15 K), 970.7 ± 0.4 kg/m3 in data set [2] (308.15 K) and 961.1 ± 0.4 kg/m3 in data set [2] (318.15 K).
With `COCCOCCOC` [2,5,8-trioxanonane], the refractive index in data set [1] (288.15 K) is given as 1.4101 ± 0.0005; in data set [1] (298.15 K), 1.4058 ± 0.0005; in data set [1] (308.15 K) it was 1.4012 ± 0.0005; in data set [1] (318.15 K), 1.3968 ± 0.0005. The mass density in data set [2] (288.15 K) was determined as 948.6 ± 0.3 kg/m3; in data set [2] (298.15 K), 938.7 ± 0.3 kg/m3; in data set [2] (308.15 K), 928.7 ± 0.3 kg/m3; in data set [2] (318.15 K) it was 918.6 ± 0.3 kg/m3.
For `CCO` [ethanol], the refractive index worked out at 1.3632 ± 0.0005 in data set [1] (288.15 K), 1.3591 ± 0.0005 in data set [1] (298.15 K), 1.3551 ± 0.0005 in data set [1] (308.15 K) and 1.3509 ± 0.0005 in data set [1] (318.15 K). The mass density in data set [2] (288.15 K) stood at 793.6 ± 0.5 kg/m3; in data set [2] (298.15 K), 785.2 ± 0.5 kg/m3; in data set [2] (308.15 K), 776.6 ± 0.5 kg/m3; in data set [2] (318.15 K), 767.9 ± 0.5 kg/m3.
Turning to `CCO` [ethanol] + COCCOC, the mass density in data set [3] (288.15 K) came to 793.6 ± 0.5 kg/m3; in data set [3] (298.15 K), 785.2 ± 0.5 kg/m3; in data set [3] (308.15 K), 776.6 ± 0.5 kg/m3; in data set [3] (318.15 K), 767.9 ± 0.5 kg/m3. Besides, the refractive index in data set [4] (288.15 K) came out at 1.3632 ± 0.0005; in data set [4] (298.15 K) it was 1.3591 ± 0.0005; in data set [4] (308.15 K) it was 1.3551 ± 0.0005; in data set [4] (318.15 K), 1.3509 ± 0.0005.
Consider `CCO` [ethanol] + COCCOCCOC, for which the mass density in data set [3] (288.15 K) was determined as 793.6 ± 0.5 kg/m3; in data set [3] (298.15 K) it was 785.2 ± 0.5 kg/m3; in data set [3] (308.15 K), 776.6 ± 0.5 kg/m3; in data set [3] (318.15 K), 767.9 ± 0.5 kg/m3. The refractive index is reported as 1.3632 ± 0.0005 in data set [4] (288.15 K), 1.3591 ± 0.0005 in data set [4] (298.15 K), 1.3551 ± 0.0005 in data set [4] (308.15 K) and 1.3509 ± 0.0005 in data set [4] (318.15 K).
`CCO` [ethanol] + COCCOCCOCCOC: the mass density in data set [3] (288.15 K) was found to be 793.6 ± 0.5 kg/m3; in data set [3] (298.15 K) it was 785.2 ± 0.5 kg/m3; in data set [3] (308.15 K), 776.6 ± 0.5 kg/m3; in data set [3] (318.15 K), 767.9 ± 0.5 kg/m3. For the same compound, the refractive index came out at 1.3632 ± 0.0005 in data set [4] (288.15 K), 1.3591 ± 0.0005 in data set [4] (298.15 K), 1.3551 ± 0.0005 in data set [4] (308.15 K) and 1.3509 ± 0.0005 in data set [4] (318.15 K).
Consider `CCO` [ethanol] + COCCOCCOCCOCCOC, for which the mass density in data set [3] (288.15 K) is given as 793.6 ± 0.5 kg/m3; in data set [3] (298.15 K), 785.2 ± 0.5 kg/m3; in data set [3] (308.15 K) it was 776.6 ± 0.5 kg/m3; in data set [3] (318.15 K) it was 767.9 ± 0.5 kg/m3. Also, the refractive index turned out to be 1.3632 ± 0.0003 in data set [4] (288.15 K), 1.3591 ± 0.0003 in data set [4] (298.15 K), 1.3551 ± 0.0003 in data set [4] (308.15 K) and 1.3509 ± 0.0003 in data set [4] (318.15 K).
